# Test results published in patent US20230391727A1, “ANALOGUES OF PENTAMIDINE AND METHODS FOR TREATING INFECTIONS” (Auransa Inc., priority 2020, published 2023).
# Like-named read-outs stand apart in the source and are kept apart here.
# Experiments:
# [1] = system: Aspergillus fumigatus AF293; test: Anti-fungal MIC assay; type: cell-based
# Procedure, shortened: (§1)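 First, DMSO stocks (6400 μg/ml, 100× highest test level) were diluted to 2× in RPMI-1640 with MOPS at pH 7.0. Trays were then held at 35° C without agitation.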
# [2] = system: Aspergillus fumigatus AF3; test: Anti-fungal MIC assay; type: cell-based
# Procedure, shortened: as §1
# [3] = system: Blastomyces dermatitidis BD1; test: Anti-fungal MIC assay; type: cell-based
# Procedure, shortened: as §1
# [4] = system: Candida albicans 43001; test: Anti-fungal MIC assay; type: cell-based
# Procedure, shortened: as §1
# [5] = system: Candida albicans CA3; test: Anti-fungal MIC assay; type: cell-based
# Procedure, shortened: as §1
# [6] = system: Candida albicans CA5; test: Anti-fungal MIC assay; type: cell-based
# Procedure, shortened: as §1
# [7] = system: Candida albicans SC5314; test: Anti-fungal MIC assay; type: cell-based
# Procedure, shortened: as §1
# [8] = system: Candida auris DI17-46; test: Anti-fungal MIC assay; type: cell-based; details: Candidozyma auris
# Procedure, shortened: as §1
# [9] = system: Candida auris DI17-47; test: Anti-fungal MIC assay; type: cell-based; details: Candidozyma auris
# Procedure, shortened: as §1
# [10] = system: Candida auris DI17-48; test: Anti-fungal MIC assay; type: cell-based; details: Candidozyma auris
# Procedure, shortened: as §1
# [11] = system: Candida glabrata 05-62; test: Anti-fungal MIC assay; type: cell-based
# Procedure, shortened: as §1
# [12] = system: Candida glabrata 05-761; test: Anti-fungal MIC assay; type: cell-based
# Procedure, shortened: as §1
# [13] = system: Candida guilliermondii Cgui1; test: Anti-fungal MIC assay; type: cell-based; details: Meyerozyma guilliermondii
# Procedure, shortened: as §1
# [14] = system: Candida guilliermondii Cgui2; test: Anti-fungal MIC assay; type: cell-based; details: Meyerozyma guilliermondii
# Procedure, shortened: as §1
# [15] = system: Candida krusei ATCC6258; test: Anti-fungal MIC assay; type: cell-based; details: Pichia kudriavzevii
# Procedure, shortened: as §1
# [16] = system: Candida parapsilosis ATCC22019; test: Anti-fungal MIC assay; type: cell-based; details: Lodderomyces parapsilosis
# Procedure, shortened: as §1
# [17] = system: Candida parapsilosis CP1; test: Anti-fungal MIC assay; type: cell-based
# Procedure, shortened: as §1
# [18] = system: Cryptococcus neoformans CN3; test: Anti-fungal MIC assay; type: cell-based
# Procedure, shortened: as §1
# [19] = system: Cryptococcus neoformans H99; test: Anti-fungal MIC assay; type: cell-based
# Procedure, shortened: as §1
# [20] = system: Paecilomyces variotii MYA-3630; test: Anti-fungal MIC assay; type: cell-based
# Procedure, shortened: as §1
# [21] = Pharmacokinetic analysis, tissue and plasma exposure; details: male C57BL6 mice, 10 mg/kg subcutaneous administration; kidney, liver, and lung
# Protocol: To determine whether target concentrations/exposures of these compounds can be achieved at various target organs, exposures of compound 3 were tested in kidney, liver, spleen, lung peritoneal fluid and plasma of male C57BL6 mice (5 mice per group). Compound 3 was dosed at 10 mg/kg subcutaneously with each group having samples taken at time indicated (FIG. 7).
# [22] = read-out: MIC, 50% growth inhibition
# [23] = read-out: MIC, 100% growth inhibition
compound,measurement,setting,value
"N=C(N)c1ccc(CC[C@H]2CCC[C@@H](CCc3ccc(C(=N)N)cc3)C2)cc1 [Compound 3, 4,4′-(2,2′-((1R,3S)-cyclohexane-1,3-diyl)bis(ethane-2,1-diyl))dibenzimidamide]",MIC,[1]; [22],16 µg/mL
same,MIC,[1]; [23],16 µg/mL
same,MIC,[2]; [22],32 µg/mL
same,MIC,[2]; [23],64 µg/mL
same,MIC,[3]; [22],4 µg/mL
same,MIC,[3]; [23],8 µg/mL
same,MIC,[4]; [22],0.25 µg/mL
same,MIC,[4]; [23],0.5 µg/mL
same,MIC,[5]; [22],1 µg/mL
same,MIC,[5]; [23],1 µg/mL
same,MIC,[6]; [22],0.25 µg/mL
same,MIC,[6]; [23],0.5 µg/mL
same,MIC,[7]; [22],1 µg/mL
same,MIC,[7]; [23],1 µg/mL
same,MIC,"[8]; DI1746, read-out: MIC, 50% growth inhibition",2 µg/mL
same,MIC,"[8]; DI1746, read-out: MIC, 100% growth inhibition",4 µg/mL
same,MIC,"[9]; DI1747, read-out: MIC, 50% growth inhibition",1 µg/mL
same,MIC,"[9]; DI1747, read-out: MIC, 100% growth inhibition",4 µg/mL
same,MIC,"[10]; DI1748, read-out: MIC, 50% growth inhibition",2 µg/mL
same,MIC,"[10]; DI1748, read-out: MIC, 100% growth inhibition",4 µg/mL
same,MIC,"[11]; Nakaseomyces glabratus, 0562, read-out: MIC, 50% growth inhibition",2 µg/mL
same,MIC,"[11]; Nakaseomyces glabratus, 0562, read-out: MIC, 100% growth inhibition",4 µg/mL
same,MIC,"[12]; Nakaseomyces glabratus, 05761, read-out: MIC, 50% growth inhibition",1 µg/mL
same,MIC,"[12]; Nakaseomyces glabratus, 05761, read-out: MIC, 100% growth inhibition",2 µg/mL
same,MIC,[13]; [22],1 µg/mL
same,MIC,[13]; [23],1 µg/mL
same,MIC,[14]; [22],2 µg/mL
same,MIC,[14]; [23],2 µg/mL
same,MIC,"[15]; ATCC6258, C. krusei ATCC 6258, second round (Table 6), read-out: MIC, 50% growth inhibition",0.5 µg/mL
same,MIC,"[15]; ATCC6258, Candida krusei ATCC6258, first round (Table 5), read-out: MIC, 50% growth inhibition",8 µg/mL
same,MIC,"[15]; ATCC6258, read-out: MIC, 100% growth inhibition, C. krusei ATCC 6258, second round (Table 6)",1 µg/mL
same,MIC,"[15]; ATCC6258, read-out: MIC, 100% growth inhibition, Candida krusei ATCC6258, first round (Table 5)",8 µg/mL
same,MIC,"[16]; ATCC22019, C. parapsilosis ATCC 22019, second round (Table 6), read-out: MIC, 50% growth inhibition",0.25 µg/mL
same,MIC,"[16]; ATCC22019, Candida parapsilosis ATCC22019, first round (Table 5), read-out: MIC, 50% growth inhibition",0.5 µg/mL
same,MIC,"[16]; ATCC22019, read-out: MIC, 100% growth inhibition, C. parapsilosis ATCC 22019, second round (Table 6)",0.5 µg/mL
same,MIC,"[16]; ATCC22019, read-out: MIC, 100% growth inhibition, Candida parapsilosis ATCC22019, first round (Table 5)",1 µg/mL
same,MIC,[17]; [22],1 µg/mL
same,MIC,[17]; [23],8 µg/mL
same,MIC,[18]; [22],0.5 µg/mL
same,MIC,[18]; [23],0.5 µg/mL
same,MIC,[19]; [22],0.5 µg/mL
same,MIC,[19]; [23],0.5 µg/mL
same,MIC,"[20]; MYA3630, read-out: MIC, 50% growth inhibition",1 µg/mL
same,MIC,"[20]; MYA3630, read-out: MIC, 100% growth inhibition",1 µg/mL
same,exposure relative to target concentrations for pharmacology,[21],target concentrations for pharmacology could be achieved
